In patent US11795460B2, “Compositions and methods for TTR gene editing and treating ATTR amyloidosis” (Intellia Therapeutics, Inc., priority 2017, dated 2023):

Tested on: TTR
Assay: TTR editing in primary cyno hepatocytes electroporated with Spy Cas9 protein and dgRNAs (Tables 10, 11)
Type: cell-based, cynomolgus monkey
Conditions: Table 10; primary cyno hepatocytes electroporated with Spy Cas9 protein (RNP) and dgRNAs
Protocol: Primary liver hepatocytes. Primary human liver hepatocytes (PHH) and primary cynomolgus liver hepatocytes (PCH) (Gibco) were cultured per the manufacturer's protocol (Invitrogen, protocol 11.28.2012). In brief, the cells were thawed and resuspended in hepatocyte thawing medium with supplements (Gibco, Cat. CM7000) followed by centrifugation at 100 g for 10 minutes for human and 80 g for 4 minutes for cyno. The supernatant was discarded and the pelleted cells resuspended in hepatocyte plating medium plus supplement pack (Invitrogen, Cat. A1217601 and CM3000). Cells were counted and plated on Bio-coat collagen I coated 96-well plates (ThermoFisher, Cat. 877272) at a density of 33,000 cells/well for human or 60,000 cells/well for cyno (or 65,000 cells/well when assaying effects on TTR protein, described further below). Plated cells were allowed to settle and adhere for 6 or 24 hours in a tissue culture incubator at 37° C. and 5% CO2 atmosphere. After incubation cells were checked for monolayer formation and media was replaced with hepatocyte culture medium with serum-free supplement pack (Invitrogen, Cat. A1217601 and CM4000).
[…] formation was performed prior to electroporation or transfection of Spy Cas9 protein loaded with guide RNAs (RNPs) onto cells. For dual guide (dgRNAs), individual crRNA and trRNA was pre-annealed by mixing equivalent amounts of reagent and incubating at 95° C. for 2 min and cooling to room temperature. Single guide (sgRNAs) were boiled at 95° C. for 2 min and cooling to room temperature. The boiled dgRNA or sgRNA was incubated with Spy Cas9 protein in Optimem for 10 minutes at room temperature to form a ribonucleoprotein (RNP) complex.
For RNP electroporation into primary human and cyno hepatocytes, the cells are thawed and resuspended in Lonza electroporation Primary Cell P3 buffer at a concentration of 2500 cells per μL for human hepatocytes and 3500 cells per μL for cyno hepatocytes. A volume of 20 μL of resuspended cells and 5 μL of RNP are mixed together per guide. 20 μL of the mixture is placed into a Lonza electroporation plate. The cells were electroporated using the Lonza nucleofector with the preset protocol EX-147. Post electroporation, the cells are transferred into a Biocoat plate containing pre-warmed maintenance media and placed in a tissue culture incubator at 37° C. and 5% CO2.
Transfected cells were harvested post-transfection at 24, 48, or 72 hours. The genomic DNA was extracted from each well of a 96-well plate using 50 μL/well BuccalAmp DNA Extraction solution (Epicentre, Cat. QE09050) per manufacturer's protocol. All DNA samples were subjected to PCR and subsequent NGS analyses, as described herein.
To quantitatively determine the efficiency of editing at the target location in the genome, sequencing was utilized to identify the presence of insertions and deletions introduced by gene editing.
Primers were designed around the target site within the gene of interest (e.g. TTR), and the genomic area of interest was amplified.
Additional PCR was performed per the manufacturer's protocols (Illumina) to add chemistry for sequencing. The amplicons were sequenced on an Illumina MiSeq instrument. The reads were aligned to a reference genome (e.g., the human reference genome (hg38), the cynomologus reference genome (mf5), the rat reference genome (rn6), or the mouse reference genome (mm10)) after eliminating those having low quality scores. The resulting files containing the reads were mapped to the reference genome (BAM files), where reads that overlapped the target region of interest were selected and the number of wild type reads versus the number of reads which contain an insertion, substitution, or deletion was calculated.
The editing percentage (e.g., the “editing efficiency” or “percent editing” or “indel frequency”) is defined as the total number of sequence reads with insertions/deletions (“indels”) or substitutions over the total number of sequence reads, including wild type. […]

| Sequence | Avg % Deletion | Avg % Edit | Avg % Insert |
| --- | --- | --- | --- |
| AAAGGCUGCUGAUGACACCU (tested as dual guide RNA, chemistry not given here) [CR003353] | 0.08% | 4.75% | 4.67% |
| AAAGUUCUAGAUGCUGUCCG (tested as dual guide RNA, chemistry not given here) [CR003346] | 0.09% | 1.91% | 1.82% |
| AAAUAGACACCAAAUCUUAC (tested as dual guide RNA, chemistry not given here) [CR003366] | 0.90% | 18.52% | 17.62% |
| AAGUGCCUUCCAGUAAGAUU (tested as dual guide RNA, chemistry not given here) [CR003368] | 0.26% | 18.56% | 18.30% |
| AAUAGGAGUAGGGGCUCAGC (tested as dual guide RNA, chemistry not given here) [CR003384] | 1.25% | 3.75% | 2.50% |
| ACACAAAUACCAGUCCAGCA (tested as dual guide RNA, chemistry not given here) [CR003339] | 4.02% | 8.95% | 4.93% |
| ACCUCUGCAUGCUCAUGGAA (tested as dual guide RNA, chemistry not given here) [CR003371] | 0.14% | 1.83% | 1.69% |
| ACGUGUCUUCUCUACACCCA (tested as dual guide RNA, chemistry not given here) [CR005302] | 0.08% | 1.34% | 1.26% |
| ACUGAGGAGGAAUUUGUAGA (tested as dual guide RNA, chemistry not given here) [CR003363] | 2.39% | 15.64% | 13.24% |
| AGUCCCUCAUUCCUUGGGAU (tested as dual guide RNA, chemistry not given here) [CR003392] | 0.38% | 7.02% | 6.63% |
| AGUGAGUCUGGAGAGCUGCA (tested as dual guide RNA, chemistry not given here) [CR003359] | 5.51% | 46.17% | 40.66% |
| AUACCAGUCCAGCAAGGCAG (tested as dual guide RNA, chemistry not given here) [CR003338] | 0.05% | 44.94% | 44.89% |
| AUAGGAGUAGGGGCUCAGCA (tested as dual guide RNA, chemistry not given here) [CR003383] | 4.55% | 8.86% | 4.31% |
| AUGCAGCUCUCCAGACUCAC (tested as dual guide RNA, chemistry not given here) [CR003358] | 1.46% | 20.47% | 19.01% |
| AUUGGUGACGACAGCCGUGG (tested as dual guide RNA, chemistry not given here) [CR003389] | 0.78% | 18.83% | 18.05% |
| CAUUGAUGGCAGGACUGCCU (tested as dual guide RNA, chemistry not given here) [CR003347] | 0.25% | 72.41% | 72.15% |
| CCAGUCCAGCAAGGCAGAGG (tested as dual guide RNA, chemistry not given here) [CR003337] | 0.84% | 24.94% | 24.10% |
| CCCCUACUCCUAUUCCACCA (tested as dual guide RNA, chemistry not given here) [CR003385] | 4.12% | 30.96% | 26.84% |
| CCGUGGUGGAAUAGGAGUAG (tested as dual guide RNA, chemistry not given here) [CR003386] | 2.03% | 5.54% | 3.51% |
| CCUCCUCUGCCUUGCUGGAC (tested as dual guide RNA, chemistry not given here) [CR003336] | 0.07% | 8.18% | 8.10% |
| CCUCUGCAUGCUCAUGGAAU (tested as dual guide RNA, chemistry not given here) [CR003370] | 0.12% | 2.52% | 2.40% |
| CUCUGCAUGCUCAUGGAAUG (tested as dual guide RNA, chemistry not given here) [CR003369] | 0.25% | 1.53% | 1.28% |
| CUGAGGAGGAAUUUGUAGAA (tested as dual guide RNA, chemistry not given here) [CR003364] | 5.35% | 19.62% | 14.27% |
| CUGGUAUUUGUGUCUGAGGC (tested as dual guide RNA, chemistry not given here) [CR003341] | 0.77% | 8.43% | 7.66% |
| GAAAGGCUGCUGAUGACACC (tested as dual guide RNA, chemistry not given here) [CR003352] | 0.09% | 1.25% | 1.16% |
| GACGACAGCCGUGGUGGAAU (tested as dual guide RNA, chemistry not given here) [CR003388] | 0.22% | 6.81% | 6.59% |
| GCAUGGGCUCACAACUGAGG (tested as dual guide RNA, chemistry not given here) [CR003362] | 0.22% | 4.59% | 4.36% |
| GCCGUGGUGGAAUAGGAGUA (tested as dual guide RNA, chemistry not given here) [CR003387] | 0.17% | 4.72% | 4.55% |
| GCUGCAUGGGCUCACAACUG (tested as dual guide RNA, chemistry not given here) [CR003361] | 0.08% | 4.53% | 4.46% |
